In paper PMC7160673, “A Degenerate Peptide Library Approach to Reveal Sequence Determinants of Methyllysine-Driven Protein Interactions” (Frontiers in Cell and Developmental Biology, 2020):
Where no end group is shown, it is not given here. Peg = not defined here

Legend:
Format in all cases: binding
[1] = tested on: Millipore #07-449, anti-H3K27me3; assay: Histone peptide microarray, Millipore 07-449; conditions: Millipore 07-449 (anti-H3K27me3) hits, average signal per peptide
Procedure: (§1) Peptide microarrays were fabricated using an Aushon 2470 microarrayer and used as described ([Cornett et al., 2017]) with the following modifications. Protein and antibody hybridization steps were performed in buffer containing 25 mM HEPES pH 7.5, 100 mM NaCl, 0.5% BSA (w/v), and 0.1% NP-40. Slides were washed 3 × 5 min in PBS supplemented with 0.1% Tween-20 between each hybridization step. Antibodies used were primary anti-GST (Sigma #7781, 1:2,000 dilution) and an AlexaFluor 647-labeled secondary antibody (Life Technologies A-21245, 1:5,000 dilution). […] Full lists of peptides queried by array analysis are in Supplementary Table S2.

CST 9733 (anti-H3K27me3) = assay: Histone peptide microarray, CST 9733; conditions: histone peptide array signal normalized to the highest peptide average per subarray, hits; CST 9733 LOT:14 dilution 1:5,000
Procedure: as §1

[2] = tested on: Active Motif #39161, anti-H3K9me3; assay: Histone peptide microarray, Active Motif 39161; conditions: Active Motif 39161 (anti-H3K9me3) hits
Procedure: as §1

53BP1 TTD = assay: Histone peptide microarray, 53BP1 TTD; conditions: 53BP1 TTD hits, average signal per peptide
Procedure: as §1

[3] = tested on: Abcam #ab8895, anti-H3K4me1; assay: Histone peptide microarray, Abcam ab8895; conditions: Abcam ab8895 (anti-H3K4me1) hits, average signal per peptide
Procedure: as §1

| Substance | Avg Signal [1] | Avg Signal (CST 9733 (anti-H3K27me3)) | Avg Signal [2] | Avg Signal (53BP1 TTD) | Avg Signal [3] |
| --- | --- | --- | --- | --- | --- |
| ACitTK(Me3)QTARKSTGGKAPRKQL-K(Biot)-NH2 [H3.1Cit2K4me3] | 0.01263 | 0.00216 | 0.009245 | 0.1746 | – |
| AR(Me2a)TK(Me3)QTARK(Ac)pSTGGK(Ac)APRK(Ac)QL-K(Biot)-NH2 [H3.1R2me2aK4me3K9acS10pK14acK18ac] | 0.0008355 | 0.001633 | 0.01104 | 0.02248 | – |
| AR(Me2a)TK(Me3)QTARKSTGGKAPRKQL-K(Biot)-NH2 [H3.1R2me2aK4me3] | 0.02156 | 0.001321 | 0.01254 | 0.09687 | – |
| AR(Me2s)TK(Me3)QTARK(Ac)STGGK(Ac)APRK(Ac)QL-K(Biot)-NH2 [H3.1R2me2sK4me3K9acK14acK18ac] | 0.02279 | 0.0007823 | 0.02558 | 0.134 | – |
| AR(Me2s)TK(Me3)QTARKSTGGKAPRKQL-K(Biot)-NH2 [H3.1R2me2sK4me3] | 0.0135 | 0.00218 | 0.01035 | 0.1898 | – |
| ARTK(Ac)QTARK(Ac)STGGK(Ac)APRK(Ac)QL-K(Biot)-NH2 [H3.1K4acK9acK14acK18ac] | – | 0.0003418 | 0.05366 | 0.1399 | – |
| ARTK(Me3)QTARK(Ac)STGGK(Ac)APRK(Ac)QL-K(Biot)-NH2 [H3.1K4me3K9acK14acK18ac] | 0.03443 | 0.009625 | 0.004819 | 0.09733 | – |
| ARTK(Me3)QTARK(Ac)STGGK(Ac)APRKQL-K(Biot)-NH2 [H3.1K4me3K9acK14ac] | 0.05366 | 0.005042 | 0.01712 | 0.06229 | – |
| ARTK(Me3)QTARK(Ac)STGGKAPRK(Ac)QL-K(Biot)-NH2 [H3.1K4me3K9acK18ac] | 0.05409 | 0.009868 | 0.01916 | 0.0915 | – |
| ARTK(Me3)QTARK(Ac)STGGKAPRKQL-K(Biot)-NH2 [H3.1K4me3K9ac] | 0.05697 | 0.008895 | 0.02897 | 0.2378 | – |
| ARTK(Me3)QTARK(Ac)pSTGGKAPRKQL-K(Biot)-NH2 [H3.1K4me3K9acS10p] | 0.007736 | 0.004944 | 0.01343 | 0.1299 | – |
| ARTK(Me3)QTARKSTGGK(Ac)APRK(Ac)QL-K(Biot)-NH2 [H3.1K4me3K14acK18ac] | 0.01453 | 0.006975 | 0.0136 | 0.09432 | – |
| ARTK(Me3)QTARKpSTGGKAPRKQL-K(Biot)-NH2 [H3.1K4me3S10p] | 0.003491 | 0.002306 | 0.0006195 | 0.00608 | – |
| ARTK(Me3)QpTARK(Ac)STGGK(Ac)APRK(Ac)QL-K(Biot)-NH2 [H3.1K4me3T6pK9acK14acK18ac] | 0.0001463 | 0.004429 | 0.005164 | 0.03157 | – |
| ARTK(Me3)QpTARKSTGGKAPRKQL-K(Biot)-NH2 [Peptide H3.1K4me3T6p] | 0.009429 | 0.001818 | 0.02043 | 0.1846 | – |
| ARTKQTAR(Me)KSTGGKAPRKQL-Peg-Biot (chain 2 KSTGGKAPRKQL-{Peg-Biot}; not fully specified; reading uncertain) [Peptide H3.1R8me1] | – | 0.01735 | – | – | 0.1046 |
| ARTKQTAR-NleSTGGKAPRKQL-Peg-Biot [Peptide H3.1K9-Nle] | 0.001582 | 0.0002703 | – | – | 0.1441 |
| ARTKQpTAR(Me2a)K(Me3)STGGKAPRKQL-K(Biot)-NH2 [H3.1T6pR8me2aK9me3] | 0.006631 | 0.008944 | 0.6906 | – | – |
| Ac-APRKQLATK(Ac)AARKSAPSTGG-Peg-Biot [Peptide H3.3K23ac] | – | 0.0001716 | 0.006441 | – | – |

| Substance | Avg Signal [1] | Avg Signal (CST 9733 (anti-H3K27me3)) | Avg Signal [2] | Avg Signal (53BP1 TTD) | Avg Signal [3] |
| --- | --- | --- | --- | --- | --- |
| Ac-APRKQLATKAAR(Me2a)KSAPSTGG-Peg-Biot [Peptide H3.3R26me2a] | 0.001966 | 0.0004634 | 0.01154 | – | – |
| Ac-APRKQLATKAARK(Ac)pSAPSTGG-Peg-K(Biot)-NH2 [H3.3K27acS28p] | 0.0005992 | 0.0002202 | 0.002338 | – | – |
| Ac-APRKQLATKAARK(Me3)pSAPSTGG-Peg-Biot [H3.3K27me3S28p] | 0.1105 | 0.1559 | 0.0007938 | – | – |
| Ac-GK(Ac)GGAK(Ac)RHRK(Me)VLRDNIQ-Peg-Biot [H4K12acK16acK20me1] | 0.001642 | 0.0009983 | 0.005445 | – | – |
| Ac-GKGGAKRHRKVLRDNIQ-Peg-Biot [H4(11-27)] | – | 0.0004161 | 0.04504 | 0.128 | – |
| Ac-RRYQKSTELL-Peg-Biot [H3.1.1(52-61)] | 0.0002743 | 3.787e-5 | 0.0005198 | – | – |
| Ac-SGCitGK(Ac)QGGKARAKAKTR-Peg-Biot [Peptide H2ACit3K5ac] | – | 1.355e-5 | – | 0.009599 | – |
| Ac-SGRGK(But)GGK(But)GLGK(But)GGAKRHRKVLR-Peg-Biot [H4K5butK8butK12but] | 0.01591 | 0.0001351 | 0.01514 | – | 0.000718 |
| Ac-SGRGK(Me)GGK(Ac)GLGK(Ac)GGAK(Ac)RHRKVLR-Peg-Biot [H4K5me1K8acK12acK16ac] | 0.002528 | 1.398e-6 | 0.0048 | – | 0.01497 |
| Ac-SGRGKGGK(Ac)GLGK(Ac)GGAKRHRKVLR-Peg-Biot [Peptide H4K8acK12ac] | 0.006396 | 0.0001351 | 0.0006444 | – | 0.002906 |
| Ac-SGRGKGGKGLGK(Ac)GGAKRHRK(Ac)VLR-Peg-Biot [Peptide H4K12acK20ac] | 0.007438 | 0.0004147 | 0.009155 | – | 0.005228 |
| Ac-SGRGKTGGKARAKAKSR-Peg-Biotin [H2A.X(1-17)] | – | 3.787e-5 | 0.0004918 | – | – |
| H3.1.1(15-34) H3.1(15-34): arrayed peptide ID 202 or 2551; same annotation and length | – | 0.0005485 | – | – | – |
| KSAPSTGGVK(Me3)KPHRYKPGT-G-K(Biot)-NH2 [yH3K36me3] | – | 0.0003217 | – | 0.1137 | – |
| KSAPSTGGVK(Me3)KPHRYRPGTV-K(biotin)-NH2 [H3.3K36me3 H3.3(27-46)] | – | 0.00263 | – | – | – |
| KSAPSTGGVK(Me)KPHRYRPGT-G-K(Biot)-NH2 [Peptide H3.3K36me1] | 0.009576 | 0.0007823 | 0.0005946 | – | 0.003496 |
| PEPAK(Me2)SAPAPKKGSKKAVTKAQKK-Peg-Biot [Peptide H2BK5me2] | – | 0.0008674 | – | 0.1922 | – |
| PRRRRRRGSSGAGGRGRTCS-Peg-Biot [Peptide H2A.B] | – | 0 | – | – | – |
| SGRGK(Ac)QGGK(Ac)ARAK(Ac)AK(Ac)TR-Peg-Biot [H2AK5acK9acK13acK15ac(noN-ac)] | – | 6.218e-5 | – | 0.2522 | – |
